Structures are written as SMILES.

This assay can be described thus: Determination of GC-odor threshold values. As to conditions: gas chromatograph with sniff port, panel of trained evaluators; absolute amount delivered at the sniff port. The method, then:
According to standard procedures known to the person skilled in the art, threshold values for volatile perfumery compounds are determined on a gas chromatograph equipped with a sniff port by a panel of trained evaluators. The lowest concentration smelled by each panellist is recorded as the individual threshold value expressed in ng (absolute amount of compound delivered at the sniff port).
Under identical conditions the odour threshold value for the individual compounds was measured.
On to `Cc1ccccc1C(C#N)=C1CCCCC1` [Example 1, Cyclohexylidene-o-tolyl-acetonitrile], for which the “odour threshold value geometric mean” value turned out to be 0.12 ng. For the molecule `Cc1ccc(C(C#N)=C2CCCCC2)cc1` [Example 2, Cyclohexylidene-p-tolyl-acetonitrile], the “odour threshold value geometric mean” value came out at 2.91 ng. As for `Cc1cccc(C(C#N)=C2CCCCC2)c1` [Example 4, Cyclohexylidene-m-tolyl-acetonitrile], the figure is 1.08 ng; as for `N#CC(=C1CCCCC1)c1ccccc1` [Peonile ®, cyclohexylidene-phenyl-acetonitrile], 0.53 ng.

(Values after US7655701B2, “Cycloalkylidene-(ortho substituted phenyl)-acetonitriles and their use as odorants” (Givaudan SA, priority 2005, dated 2010).)
